In patent US20260297070A1, “CYCLIC [COMPOUND LEFT OUT] WRN INHIBITORS” (Nimbus Wadjet, Inc., priority 2023, published 2026):

The compounds below were run against T1, human Werner helicase (WRN-BV08, Uniprot Q14191, amino acids 517-1235 with L1074F point mutation) (Homo sapiens, UniProt Q14191, L1074F) (assay: WRN (BV08) ADP-Glo Assay). Conditions: 0.15 nM WRN, 5 μM ATP, 0.1 nM DNA duplex, 15 min preincubation, 60 min at 25° C., pH 7.5, 1% DMSO; read-out: ADP-Glo_hWRN_IC50.
T1 construct: Uniprot Q14191, amino acids 517-1235 with L1074F point mutation; TEV-cleavable 8×His (C, cleaved yes); made in house; host or cells: Sf9 insect cells (baculovirus)
T1 sequence (Q14191 with tags, fused parts or gaps L1074F limits assumed): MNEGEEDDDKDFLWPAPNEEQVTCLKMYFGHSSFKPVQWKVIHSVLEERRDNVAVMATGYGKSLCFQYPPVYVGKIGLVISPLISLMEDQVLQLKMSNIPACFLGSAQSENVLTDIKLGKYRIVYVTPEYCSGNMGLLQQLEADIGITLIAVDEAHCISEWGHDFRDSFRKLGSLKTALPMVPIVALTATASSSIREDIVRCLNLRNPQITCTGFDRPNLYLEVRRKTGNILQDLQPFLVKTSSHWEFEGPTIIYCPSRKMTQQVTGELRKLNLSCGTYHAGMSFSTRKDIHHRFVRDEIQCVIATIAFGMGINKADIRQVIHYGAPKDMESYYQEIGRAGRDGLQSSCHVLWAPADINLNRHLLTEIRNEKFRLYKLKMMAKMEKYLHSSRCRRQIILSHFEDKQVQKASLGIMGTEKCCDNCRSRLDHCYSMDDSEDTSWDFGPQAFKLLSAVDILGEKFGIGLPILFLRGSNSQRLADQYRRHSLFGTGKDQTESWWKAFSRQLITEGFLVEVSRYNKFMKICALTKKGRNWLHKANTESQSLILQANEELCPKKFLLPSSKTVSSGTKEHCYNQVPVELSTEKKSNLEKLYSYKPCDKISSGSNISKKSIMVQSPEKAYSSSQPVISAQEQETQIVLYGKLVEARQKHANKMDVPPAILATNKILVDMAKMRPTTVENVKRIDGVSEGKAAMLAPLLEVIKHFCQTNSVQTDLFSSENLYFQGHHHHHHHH
Format: biochemical
Procedure, shortened: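 Percent inhibition was normalised to DMSO (max) and 20 μM NSC-617145 (min) controls from ADP-Glo luminescence, and IC50 values came from a four-parameter fit. The reaction ran 60 min at 25 °C with 0.15 nM WRN, 5 μM ATP and 0.1 nM duplex DNA.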
Compound `CC(F)(F)c1ccc(CC(=O)N(Cc2ccncc2)C2C=CS(=O)(=O)C2)cc1` (centres unmarked) [I-191, 2-[4-(1,1-difluoroethyl)phenyl]-N-(1,1-dioxo-2,3-dihydro-1lambda6-thiophen-3-yl)-N-[(pyridin-4-yl)methyl]acetamide] has an IC50 of 0.5 to 5 µM. `CN(C)C(=O)C(C(=O)N(Cc1ccnc(C(C)(C)O)c1)C1C=CS(=O)(=O)C1)c1ccc(S(F)(F)(F)(F)F)cc1` (centres unmarked) [I-192, N′-(1,1-dioxo-2,3-dihydro-1lambda6-thiophen-3-yl)-N′-{[2-(2-hydroxypropan-2-yl)pyridin-4-yl]methyl}-N,N-dimethyl-2-[4-(pentafluoro-lambda6-sulfanyl)phenyl]propanediamide] gave an IC50 of 0.5 to 5 µM. Compound `COc1cc(CN(C(=O)Cc2ccc(-c3ccc(F)cc3O)nc2)C2C=CS(=O)(=O)C2)ccn1` (centres unmarked) [I-194, N-(1,1-dioxido-2,3-dihydrothiophen-3-yl)-2-(6-(4-fluoro-2-hydroxyphenyl)pyridin-3-yl)-N-((2-methoxypyridin-4-yl)methyl)acetamide] has an IC50 of 5 to 10 µM. `COCC(C(=O)N(Cc1ccnc(C(C)(C)O)c1)C1C=CS(=O)(=O)C1)c1ccc(-c2ccc(F)c(F)c2)cc1F` (centres unmarked) [I-195, N-(1,1-dioxo-2,3-dihydro-1lambda6-thiophen-3-yl)-N-{[2-(2-hydroxypropan-2-yl)pyridin-4-yl]methyl}-3-methoxy-2-{3,3′,4′-trifluoro-[1,1′-biphenyl]-4-yl}propanamide] showed an IC50 of 0.5 to 5 µM. Work on `O=C(Cc1ccc(-c2ccc(F)cc2)cc1C(F)F)N(Cc1ccncc1)C1C=CS(=O)(=O)C1` (centres unmarked) [I-196, 2-[3-(difluoromethyl)-4′-fluoro-[1,1′-biphenyl]-4-yl]-N-(1,1-dioxo-2,3-dihydro-1lambda6-thiophen-3-yl)-N-[(pyridin-4-yl)methyl]acetamide] yielded an IC50 of 0.5 to 5 µM. `CC(C)c1ccc(CC(=O)N(Cc2ccncc2)C2C=CS(=O)(=O)C2)cc1` (centres unmarked) [I-197, N-(1,1-dioxo-2,3-dihydro-1lambda6-thiophen-3-yl)-2-[4-(propan-2-yl)phenyl]-N-[(pyridin-4-yl)methyl]acetamide] gave an IC50 of 0.5 to 5 µM. `COc1cc(CN(C(=O)Cc2ncc(-c3ccc(F)c(F)c3)cn2)C2C=CS(=O)(=O)C2)ccn1` (centres unmarked) [I-198, 2-[5-(3,4-difluorophenyl)pyrimidin-2-yl]-N-(1,1-dioxo-2,3-dihydro-1lambda6-thiophen-3-yl)-N-[(2-methoxypyridin-4-yl)methyl]acetamide] gave an IC50 of 0.5 to 5 µM. `O=C(Cc1ccc(-c2ccc(F)cc2)cc1)N(Cc1ccncc1)C1C=CS(=O)(=O)C1` (centres unmarked) [I-200, N-(1,1-dioxo-2,3-dihydro-1lambda6-thiophen-3-yl)-2-{4′-fluoro-[1,1′-biphenyl]-4-yl}-N-[(pyridin-4-yl)methyl]acetamide] was tested, and the IC50 was 0.5 to 5 µM. In the case of `O=C(Cc1ccc(-n2cccc2)cc1)N(Cc1cccc(Cl)c1)C1C=CS(=O)(=O)C1` (centres unmarked) [I-201, N-[(3-chlorophenyl)methyl]-N-(1,1-dioxo-2,3-dihydro-1lambda6-thiophen-3-yl)-2-[4-(1H-pyrrol-1-yl)phenyl]acetamide], the IC50 is reported as 0.5 to 5 µM. Work on `COc1cc(CN(C(=O)Cc2ccc(-n3cccc3C)cc2F)C2C=CS(=O)(=O)C2)nc(OC)c1` (centres unmarked) [I-202, N-[(4,6-dimethoxypyridin-2-yl)methyl]-N-(1,1-dioxo-2,3-dihydro-1lambda6-thiophen-3-yl)-2-[2-fluoro-4-(2-methyl-1H-pyrrol-1-yl)phenyl]acetamide] yielded an IC50 of 0.5 to 5 µM. `O=C(Cc1ccc(-c2ccc(F)cc2F)cc1)N(Cc1ccncc1)C1C=CS(=O)(=O)C1` (centres unmarked) [I-203, 2-{2′,4′-difluoro-[1,1′-biphenyl]-4-yl}-N-(1,1-dioxo-2,3-dihydro-1lambda6-thiophen-3-yl)-N-[(pyridin-4-yl)methyl]acetamide] was tested, and the IC50 was 0.5 to 5 µM. In the case of `CCc1cccn1-c1ccc(CC(=O)N(Cc2ccnc(OC)c2)C2C=CS(=O)(=O)C2)c(F)c1` (centres unmarked) [I-204, N-(1,1-dioxo-2,3-dihydro-1lambda6-thiophen-3-yl)-2-[4-(2-ethyl-1H-pyrrol-1-yl)-2-fluorophenyl]-N-[(2-methoxypyridin-4-yl)methyl]acetamide], the IC50 is reported as 0.5 to 5 µM. `O=C(Cc1ncc(-c2ccc(F)cc2)cc1F)N(Cc1ccncc1)C1C=CS(=O)(=O)C1` (centres unmarked) [I-205, N-(1,1-dioxo-2,3-dihydro-1lambda6-thiophen-3-yl)-2-[3-fluoro-5-(4-fluorophenyl)pyridin-2-yl]-N-[(pyridin-4-yl)methyl]acetamide] was tested, and the IC50 was 0.5 to 5 µM. Work on `Cc1cccn1-c1ccc(CC(=O)N(Cc2ccncc2)C2C=CS(=O)(=O)C2)cc1` (centres unmarked) [I-206, N-(1,1-dioxo-2,3-dihydro-1lambda6-thiophen-3-yl)-2-[4-(2-methyl-1H-pyrrol-1-yl)phenyl]-N-[(pyridin-4-yl)methyl]acetamide] yielded an IC50 of 0.5 to 5 µM. For `Cc1cc(CN(C(=O)Cc2ccc(-n3cccc3)cc2)C2C=CS(=O)(=O)C2)ccn1` (centres unmarked) [I-207, N-(1,1-dioxo-2,3-dihydro-1lambda6-thiophen-3-yl)-N-[(2-methylpyridin-4-yl)methyl]-2-[4-(1H-pyrrol-1-yl)phenyl]acetamide], the IC50 was 0.5 to 5 µM. With `O=C(Cc1ccc(-n2cccc2)cc1Cl)N(Cc1ccncc1)C1C=CS(=O)(=O)C1` (centres unmarked) [I-208, 2-[2-chloro-4-(1H-pyrrol-1-yl)phenyl]-N-(1,1-dioxo-2,3-dihydro-1lambda6-thiophen-3-yl)-N-[(pyridin-4-yl)methyl]acetamide] the IC50 was 0.5 to 5 µM. For `COC(C(=O)N(Cc1ccnc(C(C)(C)O)c1)C1C=CS(=O)(=O)C1)c1ccc(C(F)(F)F)cc1` (centres unmarked) [I-209, N-(1,1-dioxo-2,3-dihydro-1lambda6-thiophen-3-yl)-N-{[2-(2-hydroxypropan-2-yl)pyridin-4-yl]methyl}-2-methoxy-2-[4-(trifluoromethyl)phenyl]acetamide], the IC50 was 0.5 to 5 µM. With `O=C(Cc1ccc(-n2cccc2)cc1)N(Cc1ccc2ccccc2n1)C1C=CS(=O)(=O)C1` (centres unmarked) [I-210, N-(1,1-dioxo-2,3-dihydro-1lambda6-thiophen-3-yl)-2-[4-(1H-pyrrol-1-yl)phenyl]-N-[(quinolin-2-yl)methyl]acetamide] the IC50 was 0.5 to 5 µM. `C#CCCCC(=O)N1CCN(Cc2ccc(CN(C(=O)Cc3ccc(-n4cccc4)cc3F)C3C=CS(=O)(=O)C3)cc2)CC1` (centres unmarked) [I-211, N-(1,1-dioxo-2,3-dihydro-1lambda6-thiophen-3-yl)-2-[2-fluoro-4-(1H-pyrrol-1-yl)phenyl]-N-[(4-{[4-(hex-5-ynoyl)piperazin-1-yl]methyl}phenyl)methyl]acetamide] was tested, and the IC50 was 0.5 to 5 µM. `COc1cc(CN(C(=O)C(C)c2ccc(-n3cccc3)cc2)C2C=CS(=O)(=O)C2)ccn1` (centres unmarked) [I-212, N-(1,1-dioxo-2,3-dihydro-1lambda6-thiophen-3-yl)-N-[(2-methoxypyridin-4-yl)methyl]-2-[4-(1H-pyrrol-1-yl)phenyl]propanamide] showed an IC50 of 0.5 to 5 µM. `C#CCCCC(=O)N1CCN(c2ccc(CN(C(=O)Cc3ccc(-n4cccc4)cc3F)C3C=CS(=O)(=O)C3)cc2)CC1` (centres unmarked) [I-213, N-(1,1-dioxo-2,3-dihydro-1lambda6-thiophen-3-yl)-2-[2-fluoro-4-(1H-pyrrol-1-yl)phenyl]-N-({4-[4-(hex-5-ynoyl)piperazin-1-yl]phenyl}methyl)acetamide] gave an IC50 of 0.5 to 5 µM. For `O=C(Cc1ccc(-n2cccc2)cc1)N(Cc1ccnc(OC(F)F)c1)C1C=CS(=O)(=O)C1` (centres unmarked) [I-215, N-{[2-(difluoromethoxy)pyridin-4-yl]methyl}-N-(1,1-dioxo-2,3-dihydro-1lambda6-thiophen-3-yl)-2-[4-(1H-pyrrol-1-yl)phenyl]acetamide], the IC50 was 0.5 to 5 µM. `CCC(C)c1ccc(CC(=O)N(Cc2ccncc2)C2C=CS(=O)(=O)C2)cc1` (centres unmarked) [I-216, 2-[4-(butan-2-yl)phenyl]-N-(1,1-dioxo-2,3-dihydro-1lambda6-thiophen-3-yl)-N-[(pyridin-4-yl)methyl]acetamide] was tested, and the IC50 was 5 to 10 µM. `O=C(Cc1ccc(C2CCCC2)cc1)N(Cc1ccncc1)C1C=CS(=O)(=O)C1` (centres unmarked) [I-217, 2-(4-cyclopentylphenyl)-N-(1,1-dioxo-2,3-dihydro-1lambda6-thiophen-3-yl)-N-[(pyridin-4-yl)methyl]acetamide] gave an IC50 of 0.5 to 5 µM. `O=C(C(C(=O)N(Cc1ccncc1)C1C=CS(=O)(=O)C1)c1ccc(-c2ccc(F)cc2)cc1)N1CCOCC1` (centres unmarked) [I-218, N-(1,1-dioxo-2,3-dihydro-1lambda6-thiophen-3-yl)-2-{4′-fluoro-[1,1′-biphenyl]-4-yl}-3-(morpholin-4-yl)-3-oxo-N-[(pyridin-4-yl)methyl]propanamide] gave an IC50 of 5 to 10 µM. Work on `COc1ccc(CN(C(=O)Cc2ccc(-n3cccc3)cc2)C2C=CS(=O)(=O)C2)cc1` (centres unmarked) [I-219, N-(1,1-dioxo-2,3-dihydro-1lambda6-thiophen-3-yl)-N-[(4-methoxyphenyl)methyl]-2-[4-(1H-pyrrol-1-yl)phenyl]acetamide] yielded an IC50 of 5 to 10 µM. `O=C(Cc1ccc2cc(Br)ccc2c1)N(Cc1ccncc1)C1C=CS(=O)(=O)C1` (centres unmarked) [I-220, 2-(6-bromonaphthalen-2-yl)-N-(1,1-dioxo-2,3-dihydro-1lambda6-thiophen-3-yl)-N-[(pyridin-4-yl)methyl]acetamide] showed an IC50 of 5 to 10 µM. With `O=C(Cc1ccc(-n2cccc2)cc1)N(Cc1cccc(F)c1F)C1C=CS(=O)(=O)C1` (centres unmarked) [I-221, N-[(2,3-difluorophenyl)methyl]-N-(1,1-dioxo-2,3-dihydro-1lambda6-thiophen-3-yl)-2-[4-(1H-pyrrol-1-yl)phenyl]acetamide] the IC50 was 0.5 to 5 µM. In the case of `O=C(Cc1ccc(-n2cccc2)cc1)N(Cc1ccc2ncccc2c1)C1C=CS(=O)(=O)C1` (centres unmarked) [I-222, N-(1,1-dioxo-2,3-dihydro-1lambda6-thiophen-3-yl)-2-[4-(1H-pyrrol-1-yl)phenyl]-N-[(quinolin-6-yl)methyl]acetamide], the IC50 is reported as 5 to 10 µM.
